The results in this text go back to paper PMC8400806, “Discovery of Amide-Functionalized Benzimidazolium Salts as Potent α-Glucosidase Inhibitors” (Molecules, 2021).

Molecules are shown by their SMILES.

The target of one data set is T1, α-glucosidase enzyme (Saccharomyces cerevisiae, UniProt P53341).
T1 construct: purchased Sigma-Aldrich, Munich, Germany
The experiment in a line: biochemical. The format is biochemical. The method, then: The solution of the α-glucosidase enzyme (obtained from Saccharomyces cerevisiae (Sigma-Aldrich, Munich, Germany)) was prepared in phosphate buffer (pH 6.8, 100 mM). The synthesized compounds were dissolved in dimethyl sulfoxide (DMSO). […] Afterwards, 40 μL of 5 mM p-nitrophenyl-α-D-glucopyranoside (Sigma-Aldrich, Munich, Germany) was poured into each well and further incubated for an additional half-hour. […] Acarbose (Sigma-Aldrich, Munich, Germany) and DMSO were used as reference inhibitors and negative control, respectively. The tests were conducted in triplicate and percent inhibitions were calculated using the following formula: % Inhibition = [(A control − A sample)/A control] × 100 where ‘A’ stands for absorbance.
The IC50 values of the synthesized compounds and acarbose were also determined.

T1 sequence (P53341 whole entry): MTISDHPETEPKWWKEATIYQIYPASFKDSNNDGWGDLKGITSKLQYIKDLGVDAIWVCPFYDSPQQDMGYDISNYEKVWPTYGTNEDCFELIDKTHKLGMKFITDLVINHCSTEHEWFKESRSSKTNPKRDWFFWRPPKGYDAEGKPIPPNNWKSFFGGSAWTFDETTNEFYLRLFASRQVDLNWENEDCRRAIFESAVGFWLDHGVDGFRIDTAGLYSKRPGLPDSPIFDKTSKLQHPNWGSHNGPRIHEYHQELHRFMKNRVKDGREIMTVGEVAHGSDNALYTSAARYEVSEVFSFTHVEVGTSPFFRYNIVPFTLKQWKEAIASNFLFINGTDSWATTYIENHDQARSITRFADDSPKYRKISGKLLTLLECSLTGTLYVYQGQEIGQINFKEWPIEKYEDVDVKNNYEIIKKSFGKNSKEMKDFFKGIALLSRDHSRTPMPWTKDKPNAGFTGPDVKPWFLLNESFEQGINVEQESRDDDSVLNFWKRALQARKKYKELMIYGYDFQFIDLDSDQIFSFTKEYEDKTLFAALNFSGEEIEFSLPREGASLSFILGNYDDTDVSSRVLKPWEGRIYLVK

For the molecule `COc1ccc(NC(=O)C[n+]2c(C)n(Cc3ccccc3)c3ccccc32)cc1.[Br-]` [Compound 10m, 1-Benzyl-3-[2-{(4-methoxyphenyl)amino}-2-oxoethyl]-2-methyl-1H-benzo[d]imidazole-3-ium bromide], the melting point was in the range of 235 to 238 °C. Besides, on α-glucosidase enzyme, inhibition was half-maximal at 16.16 ± 0.026 µM (IC50).
